Laboratory results: patent publication US12544348B2, “Methods for treating APOE4/4-associated disorders” (The Regents of the University of California, priority 2018, dated 2026)

Assays:
[1] = tested on: hippocampus of apoE4-KI mice; experiment: RNA-Seq analysis of hippocampal tissue of apoE4-KI mice; assay type: in vivo
Protocol: RNA-Seq analysis of hippocampal tissue. Twelve-month-old apoE3-KI and apoE4-KI mice received daily i.p. injections of vehicle or bumetanide (0.2 mg/kg body weight) for 60 days. Mice were perfused with 0.9% saline, and the hippocampus was dissected and homogenized in Trizol reagent. Total RNA was extracted and purified with the Qiagen RNeasy Micro kit, which included a DNase treatment. cDNA was generated from full-length RNA (50 ng per sample) with the NuGEN RNA-Seq V2 kit, which uses the single primer isothermal amplification method to deplete ribosomal RNA, and sheared by Covaris to yield fragments of uniform size. The NuGen Ultralow system V2 was used for adding adapters and for barcoding and amplification. The resulting RNA libraries were purified with Agencourt XP magnetic beads, and quantified by qPCR after quality control with an Agilent Bioanalyzer. The libraries were pooled and sequenced with a HiSeq 4000 instrument (Illumina) for single-end (SE50) sequencing. Sequence data were aligned with the STAR short read aligner^33 and counts per feature were obtained with the feautureCounts function from the Subread package^34. After alignment, transcripts not shared in the GSE15222 and Syn3157255-MayoEGWAS databases were discarded, as were genes with less than one count per million in two or more samples^35.
The DESeq pipeline was used to assess DE of the remaining 11,877 transcripts. Genes below a P value of 0.05 were considered DE for future pathway analysis. After count normalization with DESeq, data were rld transformed (vsn package), and clustering was done on the DE genes with the pheatmap package. PCA was applied to the rld-transformed DE genes. The DE signatures of drugs were analyzed with Ingenuity Pathway Analysis software. Ontology analysis was done using the reference set from the Ingenuity Knowledge Base including direct and indirect gene relationships. For analysis of rank changes of apoE-genotype-specific signature genes of AD, the raw count data from the 11,877 transcripts were rank transformed, and for each gene the average rank of vehicle-treated samples was subtracted from that of bumetanide-treated samples.

[2] = tested on: apoE4-KI mice; experiment: Morris water maze (MWM) spatial learning and memory, aged apoE4-KI mice; assay type: in vivo
Description: Mice. All protocols and procedures followed the guidelines of the Laboratory Animal Resource Center at the University of California, San Francisco (UCSF). All mice were housed under identical conditions from birth through death (12-hour light/dark cycle, housed 5/cage, PicoLab Rodent Diet 20). All mouse lines were maintained on a C57Bl/6J background. ApoE3-KI and apoE4-KI homozygous mouse lines (Taconic)^30,31 were born and aged under normal conditions at the Gladstone Institutes/UCSF animal facility. Female apoE-KI mice were used because of their susceptibility to AD-related neuronal and behavioral deficits. The ages of the mice are indicated in the behavioral testing section of the online methods. Bumetanide treatment. Bumetanide was prepared at 220 μM in 2% DMSO in 0.9% sterile saline, adjusted to pH 8.5 with NaOH for solubility, and given by i.p. injection daily starting 6 weeks before and continuing throughout behavioral assessment. Body weight was measured weekly during bumetanide treatment; injection volume was calculated to achieve a dose of 0.02 (low) or 0.2 (high) mg bumetanide/kg body mass (e.g., 50-ul daily injection for a 20-g mouse). Control mice were injected with a matched volume of 2% DMSO in 0.9% sterile saline, pH 8.5. […] Behavioral testing. Mice were singly housed before testing. Each mouse was assigned a random number, so researchers were blinded to genotype and treatment information. At about 14 months of age, apoE3-KI and apoE4-KI mice were randomly assigned to treatment groups: apoE3-KI vehicle (n=10, age 14.01±0.44 months), apoE3-KI low bumetanide (n=11, age 14.30±0.33 months), apoE3-KI high bumetanide (n=10, age 13.74±0.22 months), apoE4-KI vehicle (n=10, age 14.10±0.35), apoE4-KI low bumetanide (n=10, age 14.70±0.27 months), apoE4-KI high bumetanide (n=9, age 13.77±0.28 months). Treatment was administered daily by i.p. injection beginning 6 weeks before and continuing throughout the 14 days of testing in the Morris water maze (MWM); injections were given at the end of the light cycle and after the day's test. The MWM pool (diameter, 122 cm) contained opaque water (22-23° C.) with a platform 10 cm in diameter. The platform was submerged 1.5 cm during hidden platform sessions^20-23,32 and marked with black-and-white-striped mast (15 cm high) during cued training sessions. Mice were trained to locate the hidden platform (hidden days 1-5) and the cued platform (visible days 1-3) in two daily sessions (3.5 h apart), each consisting of two 60-s trials (hidden and cued training) with a 15-min intertrial interval. Distal visual cues on the walls of the behavioral testing room remained constant throughout the test. Visible trials took place after training and memory probes and were 60 seconds long with a cued visible platform. The platform location remained constant in the hidden platform sessions but was changed for each cued (visible) platform session. Entry points were changed semirandomly between trials. At 24, 72, and 120 hours after the last hidden platform training, a 60-s probe trial (platform removed) was done. The entry point for the probe trial was in the southwest quadrant, and the target quadrant was the northeast quadrant. Performance was monitored with an Etho Vision video-tracking system (Noldus Information Technology). For the probe trials, the following analyses were performed (1) the percent time spent in the target quadrant versus average time spent in the three other quadrants, (2) the number of crossings over the position of the target platform versus the average number of crossings over the equivalent positions in the three other quadrants and (3) the distance to platform over the first 10 seconds. Statistical analyses. Behavior metrics are expressed as mean±SEM. All values for n are the numbers of mice or biological replicates. The distribution of data was assessed with the Shapiro-Wilk normality test; most of the data were normally distributed. […]

[3] = 16-month-old apoE4-KI mice, high dose 0.2 mg/kg daily i.p. 8 weeks
[4] = apoE4-KI mice, high dose 0.2 mg/kg daily i.p. 8 weeks

mean change in expression rank of genes downregulated in apoE4/4 AD (n=56) ([1]; apoE4-KI mouse hippocampus, 0.2 mg/kg i.p. 8 weeks vs vehicle): not significantly shifted away from zero
SMILES: CCCCNc1cc(C(=O)O)cc(S(N)(=O)=O)c1Oc1ccccc1 [bumetanide, 3-(butylamino)-4-phenoxy-5-sulfamoylbenzoic acid]
number of significantly perturbed pathways (Ingenuity Pathway Analysis) ([1]; DE genes P<0.05, apoE4-KI mouse hippocampus, 0.2 mg/kg i.p. 8 weeks): 71 | number of enriched pathways shared with apoE4/4 AD in humans ([1]; apoE4-KI mouse hippocampus, 0.2 mg/kg i.p. 8 weeks): 6 | average change in expression rank of the 157 genes upregulated in apoE4/4 human AD ([1]; apoE4-KI mouse hippocampus, 0.2 mg/kg i.p. 8 weeks vs vehicle, mean of all genes zero, P<0.001 Monte Carlo, shift toward lower expression): 49.76 | long-term memory, 120-hour probe trial (time in target quadrant) [2, 3]: significant preference for the target quadrant | short-term memory, 24-hour probe trial (percent time in target quadrant) [2, 3]: rescued the short-term memory deficit | short-term memory, 24-hour probe trial (percent time in target quadrant) ([2]; 16-month-old apoE4-KI mice, low dose 0.02 mg/kg daily i.p. 8 weeks): rescued the short-term memory deficit | learning curve (escape latency) in hidden platform trials ([2]; apoE4-KI mice, 0.02 or 0.2 mg/kg daily i.p. 8 weeks, vs vehicle, learning days 1-5): did not differ | platform crossings in target quadrant versus other quadrants, 24-hour probe trial [2, 4]: significantly more platform crossings in the target quadrant | platform crossings in target quadrant versus other quadrants, 120-hour probe trial [2, 4]: significantly more platform crossings in the target quadrant | short-term memory accuracy (platform crossings), 24-hour probe trial ([2]; apoE4-KI mice, low dose 0.02 mg/kg daily i.p. 8 weeks): trend toward significant improvement
